Earlier results in patent US11459613B2, “Methods of characterizing resistance to modulators of Cereblon” (THE BRIGHAM AND WOMEN'S HOSPITAL, INC., priority 2015, dated 2022).

Conditions: lenalidomide in combination with dexamethasone, front-line therapy, standard-risk multiple myeloma

Structure (SMILES): Nc1cccc2c1CN(C1CCC(=O)NC1=O)C2=O (stereo not shown) [lenalidomide]
- disease progression develops after initiating treatment (on average): 11 months
